Data taken from article PMC6686156, “Discovery of Sustainable Drugs for Neglected Tropical Diseases: Cashew Nut Shell Liquid (CNSL)‐Based Hybrids Target Mitochondrial Function and ATP Production in Trypanosoma brucei” (Chemmedchem, 2019).
Read-outs that look alike come from different tables or passages of the source.

How the values were obtained:
[1] = test system: T. b. brucei 427WT bloodstream trypomastigotes; experiment: microbe, parasite or virus in culture; type: cell-based, Trypanosoma brucei brucei; details: for EC50: Trypanosoma brucei; for SI, selectivity index=EC50(HFF)/EC50(T. b. b. WT): HFF versus T. b. b. 427WT; for RF, resistance factor (+ 5 mM glycerol versus control): Table 2
Protocol: (§1) Organisms and culture media: Only bloodstream trypomastigotes of T. b. brucei were used throughout this study. […] Parasites were cultured in vented flasks at 37 °C and 5 % CO2 atmosphere and they were passaged every 3 days. Bloodstream forms of T. congolense savannah‐type strain IL3000 were cultured in basal MEM medium, supplemented by 10 % fresh goat serum, 14 μL of β‐mercaptoethanol, 800 μL of 200 mM glutamine solution, and 10 mL of penicillin/streptomycin solution per liter of medium (pH 7.3).48 T. congolense were cultured in six‐well plates at 34 °C and 5 % CO2.
(§2) In brief, the assays were performed in 96‐well plates with 2×10^5 cells per well for T. b. brucei or 5×10^5 cells per well for T. congolense, in their respective culture media. First, 200 μL of test compounds’ solutions (400 μM, in T. brucei or T. congolense medium as appropriate) was added to the first well of each 12‐well row, from which doubling dilutions were conducted over one row per test compound. […] Fluorescence was detected using a FLUOstar Optima (BMG Labtech, Durham, NC, USA) at wavelength of 540 nm (excitation), 590 nm (emission). EC50 values were calculated by nonlinear regression using an equation for a sigmoidal dose–response curve with variable slope using Prism 5.0 (GraphPad Software Inc., San Diego, CA, USA).

T. brucei GAPDH = T. brucei GAPDH (Trypanosoma brucei brucei, UniProt P22512); experiment: Inhibition of T. brucei GAPDH; type: biochemical; details: fixed concentration of 10 μM; data not shown; read-out: decrease of GAPDH activity
T. brucei GAPDH, sequence (P22512 whole entry): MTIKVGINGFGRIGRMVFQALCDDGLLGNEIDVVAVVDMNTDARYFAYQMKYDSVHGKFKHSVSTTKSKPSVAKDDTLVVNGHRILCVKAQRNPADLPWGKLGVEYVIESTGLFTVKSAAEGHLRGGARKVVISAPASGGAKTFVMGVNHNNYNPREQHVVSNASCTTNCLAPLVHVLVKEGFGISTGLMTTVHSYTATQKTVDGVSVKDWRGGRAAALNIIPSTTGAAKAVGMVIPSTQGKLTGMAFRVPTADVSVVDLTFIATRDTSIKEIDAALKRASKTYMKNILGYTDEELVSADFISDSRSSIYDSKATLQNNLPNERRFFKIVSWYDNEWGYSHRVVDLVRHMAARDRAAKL
Excerpt: […]. […] Limitations of solubility prevented us from testing the series at higher concentrations. However, it must be noted that we cannot exclude the possibility of a low‐affinity inhibition of GAPDH contributing to the trypanocidal effect, as compounds may accumulate to relatively high concentrations within the parasite.

[2] = test system: T. b. brucei 427WT trypomastigotes; experiment: Growth curve / time-to-kill determination; type: cell-based, Trypanosoma brucei brucei; details: 1× EC50; for time to sterilize the culture: 427WT seeded at 1×10^5 cells/mL
Protocol: To determine whether 18–22 inhibited growth or cell division rather than causing cell death of T. b. brucei, cell growth curves were performed by treating 427WT trypomastigotes with concentrations corresponding to 0.5×, 1×, and 2× the EC50 value, using untreated cells as a control. Incubation with test compounds at half the EC50 (Figure 3 A) caused mostly some delayed growth phenotype, with rates increasing after 10 or 20 h. […] At double the concentration (Figure 3 C), all the hybrids cleared the culture between the 4 h and 8 h time points, with the cell populations rapidly declining between 2 and 4 h.
Untreated parasites, used as control, were grown in parallel. The cells were counted by using hemocytometer cell counter (cell count/mL×10^4) at 0, 2, 4, 8, 12, 24, 28, 32, 36, 48 h of incubation. Each experiment was performed as two independent replicates, and each sample was counted at least twice.

[3] = test system: T. b. brucei aqp2/aqp3‐KO; experiment: microbe, parasite or virus in culture; type: cell-based, Trypanosoma brucei brucei; details: for EC50: Trypanosoma brucei, read-out: EC50 T. b. b. aqp2/aq3‐KO; for RF, resistance factor relative to WT (aqp2/aqp3-KO): aqp2/aqp3-KO versus 427WT
Protocol: as §1, §2

T. b. brucei B48 = experiment: microbe, parasite or virus in culture; type: cell-based, Trypanosoma brucei brucei; details: for RF, resistance factor relative to WT (B48): B48 versus 427WT; for EC50: Trypanosoma brucei, read-out: EC50 T. b. b. B48
Protocol: as §1, §2

[4] = Cytotoxicity assay on human foreskin fibroblast (HFF), resazurin; type: cell-based; details: human foreskin fibroblast (HFF) cells, tested up to 200 μM, read-out: HFF cytotoxic activity (EC50)
Protocol: Cytotoxicity assay on human foreskin fibroblast (HFF): Toxicity of test compounds to mammalian cells was carried out using the resazurin assay previously described31 with slight modifications as follows. HFF cells were grown in a culture medium containing 500 mL of Dulbecco's modified Eagle's medium (DMEM; Sigma), 50 mL newborn calf serum (NBCS; Gibco), 5 mL penicillin/streptomycin (Gibco), and 5 mL of L‐Glutamax ([…], Gibco), at 37 °C and 5 % CO2 in vented flasks and passaged at 80–85 % of confluence. For the cytotoxicity assay, cells were suspended at 3×10^5 cells mL^−1 and 100 μL aliquots were added to each well of a 96‐well plate. The plate was incubated at 37 °C and 5 % CO2 for 24 h to allow cell adhesion. Serial test compounds dilution was performed in a different 96‐well plate and 100 μL of each dilution was transferred to each well containing cells, resulting in exposure of cells to 200–0.2 μM of test compound. Phenylarsine oxide (Sigma–Aldrich) was used as positive control and drug‐free incubation as negative control. The plates were incubated at 37 °C and 5 % CO2 for an additional 30 h, at which point 10 μL of resazurin solution ([…] in PBS) was added, followed by a final incubation for 24 h. The plates were read and the data analyzed as described above for the trypanosome assay.

T. congolense IL3000 WT = experiment: In vitro drug susceptibility assay (resazurin), T. congolense; type: cell-based; details: bloodstream forms, read-out: EC50 T. c. IL3000 WT
Protocol: as §1, §2

[5] = 72 h, bloodstream trypomastigotes, resazurin, 48 h + 24 h, n=4, read-out: EC50 T. b. b. 427WT
[6] = Table 2, 5 mM glycerol in medium, average±SEM of three, read-out: EC50 s427WT + 5 mM glycerol
[7] = Table 2, no glycerol, average±SEM of three, read-out: EC50 Control s427WT

Compound: CCCCCCCCCCCCCCCc1cccc(OC2=CC(=O)c3ccccc3C2=O)c1C(=O)OC [Compound 8, Methyl 2‐((1,4‐dioxo‐1,4‐dihydronaphthalen‐2‐yl)oxy)‐6‐pentadecylbenzoate]
- EC50 [1, 5]: > 200 µM
- inhibition at 10 µM (T. brucei GAPDH): < 15%

Compound: CCCCCCCCCCCCCCCc1cccc(OC2=CC(=O)c3cccc(OC)c3C2=O)c1C(=O)OC [Compound 9, Methyl 2‐((8‐methoxy‐1,4‐dioxo‐1,4‐dihydronaphthalen‐2‐yl)oxy)‐6 pentadecylbenzoate]
- EC50 [1, 5]: > 200 µM
- inhibition at 10 µM (T. brucei GAPDH): < 15%

Compound: CCCCCCCCCCCCCCCc1cccc(OC2=CC(=O)c3c(OC)cccc3C2=O)c1C(=O)OC [Compound 10, Methyl 2‐((5‐methoxy‐1,4‐dioxo‐1,4‐dihydronaphthalen‐2‐yl)oxy)‐6‐pentadecylbenzoate]
- EC50 [1, 5]: > 200 µM
- inhibition at 10 µM (T. brucei GAPDH): < 15%

Compound: CCCCCCCCCCCCCCCc1cccc(OC2=CC(=O)c3cccc(O)c3C2=O)c1C(=O)OC [Compound 11, Methyl 2‐((8‐hydroxy‐1,4‐dioxo‐1,4‐dihydronaphthalen‐2‐yl)oxy)‐6‐pentadecylbenzoate]
- EC50 [1, 5]: > 200 µM
- inhibition at 10 µM (T. brucei GAPDH): < 15%

Compound: CCCCCCCCCCCCCCCc1cccc(OC2=CC(=O)c3c(O)cccc3C2=O)c1C(=O)OC [Compound 12, Methyl 2‐((5‐hydroxy‐1,4‐dioxo‐1,4‐dihydronaphthalen‐2‐yl)oxy)‐6‐pentadecylbenzoate]
- EC50 [1, 5]: > 200 µM
- inhibition at 10 µM (T. brucei GAPDH): < 15%

Compound: CCCCCCCCCCCCCCCc1cccc(OC2=CC(=O)c3ccccc3C2=O)c1 [Compound 13, 2‐(3‐Pentadecylphenoxy)naphthalene‐1,4‐dione]
- EC50 [1, 5]: > 200 µM
- inhibition at 10 µM (T. brucei GAPDH): < 15%

Compound: CCCCCCCCCCCCCCCc1cccc(OC2=CC(=O)c3cccc(OC)c3C2=O)c1 [Compound 14, 8‐Methoxy‐2‐(3‐pentadecylphenoxy)naphthalene‐1,4‐dione]
- EC50 [1, 5]: > 200 µM
- inhibition at 10 µM (T. brucei GAPDH): < 15%

Compound: CCCCCCCCCCCCCCCc1cccc(OC2=CC(=O)c3c(OC)cccc3C2=O)c1 [Compound 15, 5‐Methoxy‐2‐(3‐pentadecylphenoxy)naphthalene‐1,4‐dione]
- EC50 [1, 5]: > 200 µM
- inhibition at 10 µM (T. brucei GAPDH): < 15%

Compound: CCCCCCCCCCCCCCCc1cccc(OC2=CC(=O)c3cccc(O)c3C2=O)c1 [Compound 16, 8‐Hydroxy‐2‐(3‐pentadecylphenoxy)naphthalene‐1,4‐dione]
- EC50 [1, 5]: > 200 µM
- inhibition at 10 µM (T. brucei GAPDH): < 15%

Compound: CCCCCCCCCCCCCCCc1cccc(OC2=CC(=O)c3c(O)cccc3C2=O)c1 [Compound 17, 5‐Hydroxy‐2‐(3‐pentadecylphenoxy)naphthalene‐1,4‐dione]
- EC50 [1, 5]: > 200 µM
- inhibition at 10 µM (T. brucei GAPDH): < 15%

Compound: O=C1C=C(Oc2cccc(CCCCCCCCO)c2)C(=O)c2ccccc21 [Compound 18, 2‐(3‐(8‐Hydroxyoctyl)phenoxy)naphthalene‐1,4‐dione]
- time to sterilize the culture [2]: 2 h
- EC50 [3]: 10.1 ± 2.2 µM
- RF, resistance factor relative to WT (aqp2/aqp3-KO) [3]: 1.1
- SI, selectivity index=EC50(HFF)/EC50(T. b. b. WT) [1]: >21.98
- RF, resistance factor (+ 5 mM glycerol versus control) [1]: 1.04
- EC50 [1, 5]: 9.1 ± 1.4 µM
- EC50 [1, 6]: 31.2 ± 0.6 µM
- EC50 [1, 7]: 30 ± 0.08 µM
- RF, resistance factor relative to WT (B48) (T. b. brucei B48): 0.95
- EC50 (T. b. brucei B48): 8.6 ± 2.4 µM
- inhibition at 10 µM (T. brucei GAPDH): < 15%
- EC50 at 54 h [4]: > 200 µM

Compound: COc1cccc2c1C(=O)C(Oc1cccc(CCCCCCCCO)c1)=CC2=O [Compound 19, 2‐(3‐(8‐Hydroxyoctyl)phenoxy)‐8‐methoxynaphthalene‐1,4‐dione]
- time to sterilize the culture [2]: 8 h
- EC50 [3]: 17.7 ± 1.5 µM
- RF, resistance factor relative to WT (aqp2/aqp3-KO) [3]: 1.2
- SI, selectivity index=EC50(HFF)/EC50(T. b. b. WT) [1]: >13.3
- RF, resistance factor (+ 5 mM glycerol versus control) [1]: 0.97
- EC50 [1, 5]: 15 ± 1.3 µM
- EC50 [1, 6]: 16.3 ± 0.4 µM
- EC50 [1, 7]: 16.8 ± 0.06 µM
- RF, resistance factor relative to WT (B48) (T. b. brucei B48): 0.98
- EC50 (T. b. brucei B48): 14.6 ± 1.7 µM
- inhibition at 10 µM (T. brucei GAPDH): < 15%
- EC50 at 54 h [4]: > 200 µM

Compound: O=C1C=C(Oc2cccc(CCCCCCCCO)c2)C(=O)c2c(O)cccc21 [Compound 21, 8‐Hydroxy‐2‐(3‐(8‐hydroxyoctyl)phenoxy)naphthalene‐1,4‐dione]
- effect on cell growth ([2]; over 48 h): decreased the growth rate substantially, with a nearly trypanostatic effect over the first 12 h
- EC50 [3]: 46.7 ± 7.7 µM
- RF, resistance factor relative to WT (aqp2/aqp3-KO) [3]: 1.2
- SI, selectivity index=EC50(HFF)/EC50(T. b. b. WT) [1]: >5
- EC50 [1, 5]: 40.5 ± 4.9 µM
- RF, resistance factor relative to WT (B48) (T. b. brucei B48): 0.91
- EC50 (T. b. brucei B48): 36.9 ± 5.3 µM
- inhibition at 10 µM (T. brucei GAPDH): < 15%
- EC50 at 54 h [4]: > 200 µM

Compound: N=C(N)c1ccc(N=NNc2ccc(C(=N)N)cc2)cc1 [DA, Diminazene aceturate, reference compound]
- EC50 (T. congolense IL3000 WT): 0.17 ± 0.0003 µM

Compound: N=C(N)c1ccc(OCCCCCOc2ccc(C(=N)N)cc2)cc1 [PMD, Pentamidine, reference compound]
- EC50 [3]: 0.2 ± 0.01 µM
- RF, resistance factor relative to WT (aqp2/aqp3-KO) [3]: 22.0
- EC50 [1, 5]: 0.0093 ± 0.0001 µM
- RF, resistance factor relative to WT (B48) (T. b. brucei B48): 339
- EC50 (T. b. brucei B48): 3.1 ± 0.7 µM
